Experimental data: patent EP4578856A1, “HETEROCYCLIC COMPOUND” (Ubience Inc., priority 2022, dated 2024)

Assays:
ROCK2 protein [1] = target: T1, ROCK2 protein (Homo sapiens, UniProt O75116); assay: ROCK2 kinase inhibitory activity, mobility shift assay (MSA, Carna Biosciences); assay type: biochemical; set-up: GST (N); purchased Carna Biosciences, Inc; host or cells: baculovirus expression system; details: for IC50: ROCK2 kinase; for inhibition at 1 µM: evaluation concentration 1 µM; for inhibition at 10 µM: evaluation concentration 10 µM
Method: The ROCK2 kinase inhibitory activity was measured using a mobility shift assay (MSA) provided by Carna Biosciences, Inc.
The test compound was dissolved in DMSO and further diluted with DMSO to prepare a solution having a concentration 100 times the evaluation concentration. The solution was further diluted 25 times with an assay buffer (20 mmol/L HEPES, 0.01% Triton (registered trademark) X-100, 1 mmol/L DTT, pH 7.5) to obtain a test compound solution.
The human ROCK2 kinase was expressed by fusing the catalytic domain (1 to 553 amino acids of Accession No. NP_004841.2) with GST at the N-terminus using the baculovirus expression system. GST-ROCK2 was purified by glutathione sepharose chromatography.
A 4-fold concentration substrate (LIMKtide, 1000 nmol/L) /ATP (5 µmol/L)/metal solution (Mg, 5 mmol/L) was prepared with kit buffer (20 mmol/L HEPES, 0.01% Triton (registered trademark) X-100, 5 mmol/L DTT, pH 7.5). A 2-fold concentration kinase solution was prepared with assay buffer. 5 µL of a 4-fold concentration test compound solution, 5 µL of a 4-fold concentration substrate/ATP/metal solution, and 10 µL of a 2-fold concentration kinase solution were mixed in a well of a polypropylene 384 well plate, and the mixture was reacted at room temperature for 1 hour. 70 µL of termination buffer (127 mmol/L HEPES, 0.01% Triton (registered trademark) X-100, 26.7 mmol/L EDTA-2Na, 1% DMSO, pH 7.5) was added to stop the reaction. The substrate peptide and the phosphorylated peptide in the reaction solution were separated and quantified using a LabChip (trademark) system (Perkin Elmer).
The kinase reaction was evaluated by the product ratio (P/(P + S)) calculated from the substrate peptide peak height (S) and the phosphorylated peptide peak height (P).
The average signal of the control well including all the reaction components was set to 0% suppression, the average signal of the background well (no enzyme added) was set to 100% suppression, and the inhibition rate was calculated from the average signal of the test compound test well.
The ROCK2 inhibition rate and the evaluation concentration of the test compound are shown in Table 4-1, and the IC50 value of the inhibitory activity is shown in Table 4-2. […]
Target sequence in this assay (O75116 1-553): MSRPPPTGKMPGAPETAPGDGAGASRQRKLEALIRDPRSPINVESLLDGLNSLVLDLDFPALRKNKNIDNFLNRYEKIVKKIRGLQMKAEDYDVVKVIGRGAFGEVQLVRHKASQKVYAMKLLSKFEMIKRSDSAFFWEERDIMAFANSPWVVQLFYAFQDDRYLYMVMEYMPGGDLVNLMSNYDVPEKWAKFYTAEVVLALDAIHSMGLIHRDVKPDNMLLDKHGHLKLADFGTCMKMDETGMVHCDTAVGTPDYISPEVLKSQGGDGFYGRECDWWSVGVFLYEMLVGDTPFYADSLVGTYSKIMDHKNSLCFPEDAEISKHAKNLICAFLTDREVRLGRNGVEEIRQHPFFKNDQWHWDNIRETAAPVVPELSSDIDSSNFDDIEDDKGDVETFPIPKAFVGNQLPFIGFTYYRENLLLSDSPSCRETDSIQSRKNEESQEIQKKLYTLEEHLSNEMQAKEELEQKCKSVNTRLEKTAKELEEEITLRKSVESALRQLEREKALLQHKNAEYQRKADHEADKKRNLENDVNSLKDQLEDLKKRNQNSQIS

ROCK2 protein [2] = target: T1, ROCK2 protein; assay: Degradation inducing activity of ROCK2 protein in HUVEC cells, Western blotting (Simple Western JESS); assay type: cell-based; set-up: endogenous in cells; host or cells: HUVEC (ATCC CRL-1730); details: HUVEC, 24 h; for inhibition at 1 µM: degradation rate at 1 µM; for inhibition at 10 µM: degradation rate at 10 µM
Procedure, shortened: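 HUVEC cells treated 24 h with compound at 10 µM or 1 µM, then lysed; ROCK2 quantified by capillary Western (Simple Western JESS) using rabbit mAb D1B1, normalized to total loaded protein. Degradation rate (%) calculated relative to DMSO control set at 100%, binned A ≥75%, B 50–75%, C 25–50%, D <25%.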
Target sequence in this assay (O75116 whole entry): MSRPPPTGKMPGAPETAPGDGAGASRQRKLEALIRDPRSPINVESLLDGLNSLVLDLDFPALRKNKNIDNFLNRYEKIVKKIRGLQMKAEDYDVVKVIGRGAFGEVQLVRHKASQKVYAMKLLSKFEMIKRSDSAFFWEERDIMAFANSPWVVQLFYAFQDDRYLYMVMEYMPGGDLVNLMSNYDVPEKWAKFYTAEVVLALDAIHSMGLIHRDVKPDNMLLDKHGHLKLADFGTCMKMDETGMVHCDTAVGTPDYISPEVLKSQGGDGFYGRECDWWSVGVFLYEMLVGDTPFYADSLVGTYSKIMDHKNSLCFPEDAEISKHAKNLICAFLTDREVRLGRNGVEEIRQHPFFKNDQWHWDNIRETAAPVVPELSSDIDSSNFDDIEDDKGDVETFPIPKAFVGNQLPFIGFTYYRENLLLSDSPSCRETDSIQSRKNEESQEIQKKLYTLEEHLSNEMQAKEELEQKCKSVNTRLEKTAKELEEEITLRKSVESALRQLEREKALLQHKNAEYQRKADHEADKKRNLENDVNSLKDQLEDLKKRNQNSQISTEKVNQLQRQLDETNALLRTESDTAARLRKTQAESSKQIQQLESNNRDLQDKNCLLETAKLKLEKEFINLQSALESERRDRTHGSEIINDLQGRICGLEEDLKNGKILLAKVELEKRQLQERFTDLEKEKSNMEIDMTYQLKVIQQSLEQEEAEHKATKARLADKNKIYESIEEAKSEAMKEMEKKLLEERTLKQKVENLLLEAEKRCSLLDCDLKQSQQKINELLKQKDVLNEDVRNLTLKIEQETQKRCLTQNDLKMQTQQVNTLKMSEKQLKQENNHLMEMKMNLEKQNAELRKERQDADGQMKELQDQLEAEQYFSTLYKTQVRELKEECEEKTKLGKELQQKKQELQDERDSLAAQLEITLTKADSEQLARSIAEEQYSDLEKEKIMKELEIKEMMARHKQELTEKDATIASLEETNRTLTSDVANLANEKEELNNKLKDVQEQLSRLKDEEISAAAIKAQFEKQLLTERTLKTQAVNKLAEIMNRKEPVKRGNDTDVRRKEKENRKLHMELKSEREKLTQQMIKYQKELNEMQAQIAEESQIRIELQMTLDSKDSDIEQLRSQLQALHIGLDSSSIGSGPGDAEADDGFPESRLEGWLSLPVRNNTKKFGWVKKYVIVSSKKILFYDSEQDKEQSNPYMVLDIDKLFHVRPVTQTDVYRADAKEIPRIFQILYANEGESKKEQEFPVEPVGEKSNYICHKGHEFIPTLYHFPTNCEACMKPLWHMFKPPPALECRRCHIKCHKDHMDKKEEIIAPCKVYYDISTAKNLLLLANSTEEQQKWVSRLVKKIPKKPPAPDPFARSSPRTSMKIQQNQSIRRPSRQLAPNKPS

[3] = read-out: ROCK2 inhibition rate

Row | IC50 (ROCK2 protein [1]) [nM] | inhibition at 1 µM (ROCK2 protein [2]) [%] | inhibition at 10 µM (ROCK2 protein [2]) [%] | SMILES | further results
1 | < 30 |  |  | COCCOCCNC[C@@H](C(=O)Nc1ccc2cnccc2c1)c1ccccc1 [Ref.Example 14, (S)-N-(Isoquinolin-6-yl)-3-((2-(2-methoxyethoxy)ethyl)amino)-2-phenylpropanamide, reference compound] | 
2 |  | 50 to 75 | ≥ 75 | COC[C@H]1CN[C@H](C)CN1CC(=O)N1CC(C)(C)c2ncc(Cc3ccccc3OCCOCCOCCOCCNC[C@@H](C(=O)Nc3ccc4cnccc4c3)c3ccccc3)cc21 [Example 80, (S)-N-(Isoquinolin-6-yl)-1-(2-((1-(2-((2R,5R)-2-(methoxymethyl)-5-methylpiperazin-1-yl)acetyl)-3,3-dimethyl-2,3-dihydro-1H-pyrrolo[3,2-b]pyridin-6-yl)methyl)phenoxy)-14-phenyl-3,6,9-trioxa-12-azapentadecan-15-amide] | inhibition at 0.03 µM (ROCK2 protein [1]; evaluation concentration 0.03 µM, read-out: ROCK2 inhibition rate): 25 to 50%
3 |  | 50 to 75 | 50 to 75 | COC[C@H]1CN[C@H](C)CN1CC(=O)N1CC(C)(C)c2ncc(Cc3cccc(OCCOCCOCCOCCOCCOCCOCCOCCN[C@H](Cc4cccc(F)c4)C(=O)Nc4ccc(-c5ccncc5)cc4)c3)cc21 [Example 56, (R)-2-(3-Fluorobenzyl)-26-(3-((1-(2-((2R,5R)-2-(methoxymethyl)-5-methylpiperazin-1-yl)acetyl)-3,3-dimethyl-2,3-dihydro-1H-pyrrolo[3,2-b]pyridin-6-yl)methyl)phenoxy)-N-(4-(pyridin-4-yl)phenyl)-6,9,12,15,18,21,24-heptaoxa-3-azahexacosanamide] | inhibition at 1 µM (ROCK2 protein [1]; [3]): < 25%
4 |  | 50 to 75 | 50 to 75 | COC[C@H]1CN[C@H](C)CN1CC(=O)N1CC(C)(C)c2ncc(Cc3cccc(OCCOCCOCCOCCOCCOCCOCCN[C@H](C)c4ccc(C(=O)Nc5ccncc5)cc4)c3)cc21 [Example 48, 4-((R)-23-(3-((1-(2-((2R,5R)-2-(Methoxymethyl)-5-methylpiperazin-1-yl)acetyl)-3,3-dimethyl-2,3-dihydro-1H-pyrrolo[3,2-b]pyridin-6-yl)methyl)phenoxy)-6,9,12,15,18,21-hexaoxa-3-azatricosan-2-yl)-N-(pyridin-4-yl)benzamide] | inhibition at 10 µM (ROCK2 protein [1]; [3]): ≥ 75%
5 |  | < 25 | ≥ 75 | C[C@@H]1CN(CC(=O)N2CC(C)(C)c3ncc(Cc4ccc(F)cc4)cc32)[C@@H](CN(C)CCOCCOCCN[C@H](Cc2cccc(F)c2)C(=O)Nc2ccc(-c3ccncc3)cc2)CN1 [Example 9, (R)-12-(3-Fluorobenzyl)-1-((2R,5R)-1-(2-(6-(4-fluorobenzyl)-3,3-dimethyl-2,3-dihydro-1H-pyrrolo[3,2-b]pyridin-1-yl)-2-oxoethyl)-5-methylpiperazin-2-yl)-2-methyl-N-(4-(pyridin-4-yl)phenyl)-5,8-dioxa-2,11-diazatridecan-13-amide] | inhibition at 1 µM (ROCK2 protein [1]; [3]): 25 to 50%
6 | 30 to 300 |  |  | COCCOCCCN[C@H](Cc1cccc(F)c1)C(=O)Nc1ccc(-c2ccncc2)cc1 [Ref.Example 13, (R)-3-(3-Fluorophenyl)-2-((3-(2-methoxyethoxy)propyl)amino)-N-(4-(pyridin-4-yl)phenyl)propanamide, reference compound] | 
7 |  | 50 to 75 | 50 to 75 | COC[C@H]1CN[C@H](C)CN1CC(=O)N1CC(C)(C)c2nc(CN(C)CCOCCOCCOCCN[C@H](Cc3cccc(F)c3)C(=O)Nc3ccc(-c4ccncc4)cc3)c(Cc3ccc(F)cc3)cc21 [Example 31, (R)-15-(3-Fluorobenzyl)-1-(6-(4-fluorobenzyl)-1-(2-((2R,5R)-2-(methoxymethyl)-5-methylpiperazin-1-yl)acetyl)-3,3-dimethyl-2,3-dihydro-1H-pyrrolo[3,2-b]pyridin-5-yl)-2-methyl-N-(4-(pyridin-4-yl)phenyl)-5,8,11-trioxa-2,14-diazahexadecan-16-amide] | inhibition at 1 µM (ROCK2 protein [1]; [3]): 25 to 50%
8 | 3000 to 10000 |  |  | COCCOCCCN[C@H](C)c1ccc(C(=O)Nc2ccncc2)cc1 [Ref.Example 11, (R)-4-(1-((3-(2-Methoxyethoxy)propyl)amino)ethyl)-N-(pyridin-4-yl)benzamide, reference compound] | 
9 | < 30 |  |  | COCCOCCCNC[C@@H](C(=O)Nc1ccc2cnccc2c1)c1ccccc1 [Ref.Example 15, (S)-N-(Isoquinolin-6-yl)-3-((3-(2-methoxyethoxy)propyl)amino)-2-phenylpropanamide, reference compound] | 
10 |  | ≥ 75 | 50 to 75 | COC[C@H]1CN[C@H](C)CN1CC(=O)N1CC(C)(C)c2nc(CN(C)CCOCCOCCOCCN[C@H](C)c3ccc(C(=O)Nc4ccncc4)cc3)c(Cc3ccc(F)cc3)cc21 [Example 24, 4-((R)-1-(6-(4-Fluorobenzyl)-1-(2-((2R,5R)-2-(methoxymethyl)-5-methylpiperazin-1-yl)acetyl)-3,3-dimethyl-2,3-dihydro-1H-pyrrolo[3,2-b]pyridin-5-yl)-2-methyl-5,8,11-trioxa-2,14-diazahexadecan-15-yl)-N-(pyridin-4-yl)benzamide] | inhibition at 10 µM (ROCK2 protein [1]; [3]): ≥ 75%
11 | 300 to 3000 |  |  | COCCOCCN[C@H](Cc1cccc(F)c1)C(=O)Nc1ccc(-c2ccncc2)cc1 [Ref.Example 12, (R)-3-(3-Fluorophenyl)-2-((2-(2-methoxyethoxy)ethyl)amino)-N-(4-(pyridin-4-yl)phenyl)propanamide, reference compound] | 
12 | 3000 to 10000 |  |  | COCCOCCN[C@H](C)c1ccc(C(=O)Nc2ccncc2)cc1 [Ref.Example 10, (R)-4-(1-((2-(2-Methoxyethoxy)ethyl)amino)ethyl)-N-(pyridin-4-yl)benzamide, reference compound] | 
13 |  | < 25 | 50 to 75 | COC[C@H]1CN[C@H](C)CN1CC(=O)N1CC(C)(C)c2ncc(Cc3cccc(OCCOCCOCCOCCOCCOCCOCCN[C@H](Cc4cccc(F)c4)C(=O)Nc4ccc(-c5ccncc5)cc4)c3)cc21 [Example 55, (R)-2-(3-Fluorobenzyl)-23-(3-((1-(2-((2R,5R)-2-(methoxymethyl)-5-methylpiperazin-1-yl)acetyl)-3,3-dimethyl-2,3-dihydro-1H-pyrrolo[3,2-b]pyridin-6-yl)methyl)phenoxy)-N-(4-(pyridin-4-yl)phenyl)-6,9,12,15,18,21-hexaoxa-3-azatricosanamide] | 
14 |  | < 25 | 50 to 75 | COC[C@H]1CN[C@H](C)CN1CC(=O)N1CC(C)(C)c2ncc(Cc3ccccc3OCCOCCOCCOCCOCCN[C@H](C)c3ccc(C(=O)Nc4ccncc4)cc3)cc21 [Example 67, 4-((R)-17-(2-((1-(2-((2R,5R)-2-(Methoxymethyl)-5-methylpiperazin-1-yl)acetyl)-3,3-dimethyl-2,3-dihydro-1H-pyrrolo[3,2-b]pyridin-6-yl)methyl)phenoxy)-6,9,12,15-tetraoxa-3-azaheptadecan-2-yl)-N-(pyridin-4-yl)benzamide] | 
15 |  | 50 to 75 | ≥ 75 | COC[C@H]1CN[C@H](C)CN1CC(=O)N1CC(C)(C)c2nc(CN(C)CCOCCOCCOCCOCCOCCN[C@H](C)c3ccc(C(=O)Nc4ccncc4)cc3)c(Cc3ccc(F)cc3)cc21 [Example 26, 4-((R)-1-(6-(4-Fluorobenzyl)-1-(2-((2R,5R)-2-(methoxymethyl)-5-methylpiperazin-1-yl)acetyl)-3,3-dimethyl-2,3-dihydro-1H-pyrrolo[3,2-b]pyridin-5-yl)-2-methyl-5,8,11,14,17-pentaoxa-2,20-diazadocosan-21-yl)-N-(pyridin-4-yl)benzamide] | 
16 |  | 25 to 50 | ≥ 75 | COC[C@H]1CN[C@H](C)CN1CC(=O)N1CC(C)(C)c2ncc(Cc3cccc(OCCOCCN[C@H](C)c4ccc(C(=O)Nc5ccncc5)cc4)c3)cc21 [Example 43, 4-((R)-1-((2-(2-(3-((1-(2-((2R,5R)-2-(Methoxymethyl)-5-methylpiperazin-1-yl)acetyl)-3,3-dimethyl-2,3-dihydro-1H-pyrrolo[3,2-b]pyridin-6-yl)methyl)phenoxy)ethoxy)ethyl)amino)ethyl)-N-(pyridin-4-yl)benzamide] | 
